Data from patent US11332500B2, “Heterotandem bicyclic peptide complexes” (BicycleTx Limited, priority 2019, dated 2022).
*1 amine or outer side, *2 acyl side, *3 side chain or, on linkers, in order; H or OH if unused. Where a SMILES comes first, the peptide text is derived from it. Bridges are numbered along the chain shown (N, C = ends). Roman numbers before positions name the chains, in order. [ ]: non-standard residue; d: D form. TATA = O=C(CC[*:1])N1CN(C(=O)CC[*:2])CN(C(=O)CC[*:3])C1; X2 = O=C(CCOCCOCCOCCOCCOCCn1cc(CCC(=O)[*:2])nn1)[*:1]; hArg = N=C(N)NCCCC[C@H](N)C(=O)O; tBuAla = CC(C)(C)C[C@H](N)C(=O)O; Nle = CCCC[C@H](N)C(=O)O

Molecular target: T1, CD137 (Homo sapiens, UniProt Q07011)
T1 construct: host or cells: Jurkat reporter cells from the Promega kit, co-cultured with tumour cells (NCI-H292, PC3 or RKO)
T1 sequence (Q07011 24-255): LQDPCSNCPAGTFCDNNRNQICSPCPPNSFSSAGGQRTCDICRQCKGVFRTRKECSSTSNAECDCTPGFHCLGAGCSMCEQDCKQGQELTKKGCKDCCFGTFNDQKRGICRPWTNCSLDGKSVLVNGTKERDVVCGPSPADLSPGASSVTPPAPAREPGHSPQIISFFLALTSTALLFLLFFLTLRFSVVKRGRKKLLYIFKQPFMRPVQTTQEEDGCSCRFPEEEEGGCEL
Test: CD137 reporter assay co-culture with RKO tumour cells (PD-L1/CD137 heterotandems)
Assay type: cell-based
Conditions: Jurkat CD137 reporter cells co-cultured with RKO (PD-L1), 6 h; read-out: Fold Induction over background
Experimental: Culture medium, referred to as R1 media, is prepared by adding 1% FBS to RPMI-1640 (component of Promega kit CS196005). Serial dilutions of test articles in R1 are prepared in a sterile 96 well-plate. Add 25 μL per well of test articles or R1 (as a background control) to designated wells in a white cell culture plate. Tumour cells* are harvested and resuspended at a concentration of 400,000 cells/mL in R1 media. Twenty five (25) μL/well of tumour cells are added to the white cell culture plate. Jurkat cells (Promega kit CS196005, 0.5 mL) are thawed in the water bath and then added to 5 ml pre-warmed R1 media. Twenty five (25) μL/well of Jurkat cells are then added to the white cell culture plate. Incubate the cells and test articles for 6 h at 37° C., 5% CO2. At the end of 6 h, add 75 μL/well Bio-Glo™ reagent (Promega) and incubate for 10 min before reading luminescence in a plate reader (Clariostar, BMG). The fold change relative to cells alone (Jurkat cells+Cell line used in co-culture) is calculated and plotted in GraphPad Prism as log(agonist) vs response to determine EC50 (nM) and Fold Induction over background (Max).
The tumour cell type used in co-culture for EphA2 is PC3. The tumour cell type used in co-culture for PD-L1 is RKO.
A summary of the fold induction induced by PD-L1/CD137 heterotandem peptides in the CD137 reporter coculture assay with RKO cells is shown in Table 3.

## CCCC[C@@H]1NC(=O)[C@H](Cc2ccc(O)cc2)NC(=O)[C@@H]2CCCN2C(=O)[C@H](CC(=O)O)NC(=O)[C@H](C)NC(=O)[C@H](Cc2ccccc2)NC(=O)[C@@H]2CSCCC(=O)N3CN(CN(C3)C(=O)CCSC[C@@H](C(=O)N[C@@H](C)C(N)=O)NC1=O)C(=O)CCSC[C@H](NC(C)=O)C(=O)N[C@@H](CC(C)(C)C)C(=O)N1CCC[C@H]1C(=O)N[C@@H](CCC(=O)O)C(=O)N[C@H](CCCCNC(=O)CCc1cn(CCOCCOCCOCCOCCOCCC(=O)NCCCC[C@@H]3NC(=O)[C@H](CC(C)C)NC(=O)[C@H](CCCCNC(C)=O)NC(=O)[C@H](CCC(N)=O)NC(=O)[C@@H]4CSCCC(=O)N5CN(CN(C5)C(=O)CCSC[C@@H](C(=O)N5CCC[C@H]5C(=O)N[C@@H](CO)C(=O)N[C@@H](Cc5c[nH]cn5)C(N)=O)NC(=O)[C@H](CC(C)C)NC3=O)C(=O)CCSC[C@H](NC(=O)[C@H](CCCCNC(=N)N)NC(=O)[C@H](CC(=O)O)NC(C)=O)C(=O)N[C@@H](CO)C(=O)N[C@@H](C)C(=O)NCC(=O)N[C@@H](Cc3c[nH]c5ccccc35)C(=O)N[C@@H](CC(C)C)C(=O)N[C@@H]([C@@H](C)O)C(=O)N[C@@H](CCSC)C(=O)N4)nn1)C(=O)N1CCC[C@H]1C(=O)N[C@@H](Cc1ccc(O)cc1)C(=O)N2 [BCY12242] (I: Ac-D[hArg]CSAGWLTMCQK(Ac)LKLCPSH-NH2 / II: Ac-C[tBuAla]PE[dK]PYCFADPY[Nle]CA-NH2; linker I:3-I:11-I:17, II:1-II:8-II:15 via TATA; linker I:15-II:5 via X2)
  fold induction: 13
